Values quoted from earlier work in patent US20260024626A1, “TOXICITY […], OPERATION METHOD OF TOXICITY […], AND OPERATION PROGRAM OF TOXICITY […]” (FUJIFILM Corporation, priority 2023, published 2026).
Like-named read-outs stand apart in the source and are kept apart here.

How the values were obtained:
[1] = actual test outcome, as against the positive outcome expected from the assumed metabolic reaction
[2] = With metabolic activation (rat liver extract and coenzyme added)
[3] = Without metabolic activation (no rat liver extract and coenzyme)

Compound: Nc1ccccc1O [compound A]
- Ames test result (toxicity), TA1537, Intercalation between base pairs (TA1537; [2]): No
- Ames test result (toxicity), TA1537, Intercalation between base pairs (TA1537; [3]): No
- Ames test result (toxicity), TA98, Intercalation between base pairs (TA98; [2]): No
- Ames test result (toxicity), TA98, Intercalation between base pairs (TA98; [3]): No
- Ames test result (toxicity), WP2uvrA, Covalent bonding to DNA (WP2uvrA; [2]): No
- Ames test result (toxicity), WP2uvrA, Covalent bonding to DNA (WP2uvrA; [3]): No
- Ames test result (toxicity), TA1535, Covalent bonding to DNA (TA1535; [2]): No
- Ames test result (toxicity), TA1535, Covalent bonding to DNA (TA1535; [3]): No
- Ames test result (toxicity), TA100, Covalent bonding to DNA (TA100; [2]): Toxic
- Ames test result (toxicity), TA100, Covalent bonding to DNA (TA100; [3]): No

Compound: monomethylnitrobenzene
- determination in the in vitro toxicity evaluation test [1]: negative determination

Compound: Nc1ccccc1Cl [compound C]
- Ames test result (toxicity), TA1537, Intercalation between base pairs (TA1537; [2]): No
- Ames test result (toxicity), TA1537, Intercalation between base pairs (TA1537; [3]): No
- Ames test result (toxicity), TA98, Intercalation between base pairs (TA98; [2]): No
- Ames test result (toxicity), TA98, Intercalation between base pairs (TA98; [3]): No
- Ames test result (toxicity), WP2uvrA, Covalent bonding to DNA (WP2uvrA; [2]): No
- Ames test result (toxicity), WP2uvrA, Covalent bonding to DNA (WP2uvrA; [3]): No
- Ames test result (toxicity), TA1535, Covalent bonding to DNA (TA1535; [2]): No
- Ames test result (toxicity), TA1535, Covalent bonding to DNA (TA1535; [3]): No
- Ames test result (toxicity), TA100, Covalent bonding to DNA (TA100; [2]): No
- Ames test result (toxicity), TA100, Covalent bonding to DNA (TA100; [3]): No

Compound: Nc1ccccc1-c1ccccc1 [compound B]
- Ames test result (toxicity), TA1537, Intercalation between base pairs (TA1537; [2]): No
- Ames test result (toxicity), TA1537, Intercalation between base pairs (TA1537; [3]): No
- Ames test result (toxicity), TA98, Intercalation between base pairs (TA98; [2]): No
- Ames test result (toxicity), TA98, Intercalation between base pairs (TA98; [3]): No
- Ames test result (toxicity), WP2uvrA, Covalent bonding to DNA (WP2uvrA; [2]): No
- Ames test result (toxicity), WP2uvrA, Covalent bonding to DNA (WP2uvrA; [3]): No
- Ames test result (toxicity), TA1535, Covalent bonding to DNA (TA1535; [2]): No
- Ames test result (toxicity), TA1535, Covalent bonding to DNA (TA1535; [3]): No
- Ames test result (toxicity), TA100, Covalent bonding to DNA (TA100; [2]): Toxic
- Ames test result (toxicity), TA100, Covalent bonding to DNA (TA100; [3]): No
